A short description of data set [1]: Oral bioavailability in mice, Method A (plasma and brain PK). To be noted: for half-life / Cmax / AUC(0-inf): male; for F: 10 mg/kg. Format: in vivo, CD-1 mice. The procedure:
Animals. Male CD-1 mice were used in these studies. Animals were randomly assigned to treatment groups and were fasted for 4 h before dosing.
Drugs. Test compounds were dissolved in normal saline and administered intravenously (iv) or orally (po) at a dose of 10 mg/kg (calculated based on freebase) and at a volume of 5 mL/kg body weight. Compounds were tested as the racemates or pure enantiomers, as indicated.
Sample Collection and Bioanalysis. Blood samples were collected under 2,2,2-tribromoethanol anesthesia (150 mg/kg, ip) from the orbital sinus at 0.083, 0.25, 0.5, 1, 2, 4, 8 and 24 h (4 animals per time point) into microcontainers containing K2EDTA. Immediately after collection of blood, mice were euthanized by cervical dislocation and brain samples were collected at the same time points. All samples were immediately processed, flash-frozen, and stored at −70° C. until subsequent analysis. Plasma samples were separated by centrifugation of is whole blood and aliquots (50 μL) were mixed with 200 μL of internal standard solution (400 ng/mL in 1:1 v/v CH3CN:MeOH). After mixing by pipetting and centrifuging for 4 min at 6,000 rpm, 0.5 μL of each supernatant was analyzed for drug using a fit-for-purpose liquid chromatography-tandem mass spectrometry (LC-MS/MS) method, with authentic samples of each analyte used for calibration and identification. Brain samples (weight 100 mg±1 mg) were dispersed in 500 μL of internal standard solution (400 ng/mL in 4:1 v/v MeOH:water) using zirconium oxide beads (115 mg±5 mg) in The Bullet Blender® homogenizer for 30 s at speed 8. After homogenization, the samples were centrifuged for 4 min at 14,000 rpm and 0.5 μL of each supernatant was analyzed for drug using a fit-for-purpose LC-MS/MS method, with authentic samples of each analyte used for calibration and identification.
Data Analysis. The drug concentrations of samples below the lower limit of quantitation (LLOQ) were designated as zero. Pharmacokinetic data analysis was performed using noncompartmental, bolus injection or extravascular input analysis models in WinNonlin 5.2 (PharSight). Data points below LLOQ were presented as missing to improve validity of tin calculations.

Data set [2] can be described thus: Oral bioavailability in minipigs (plasma PK). Format: in vivo, Bama minipigs. To be noted: for AUC(0-inf): male, Bama. The procedure:
Animals. Male Bama minipigs were used in these studies. Animals were randomly assigned to treatment groups and were fasted overnight before dosing.
(§1) Drugs. Compound 2R was dissolved in a vehicle consisting of normal saline. It was then administered intravenously (iv) or orally (po) at a dose of 1 mg/kg (calculated based on freebase) and at a volume of 2 mL/kg body weight (n=3 per dosing route).
(§2) Sample Collection and Bioanalysis. Blood samples (approximately 500 μL) were collected under manual restraint from the cephalic vein at 0.08, 0.25, 0.5, 1, 2, 4, 8, and 24 h ([…]) into K2EDTA tubes and placed on wet ice. Immediately after blood collection, plasma was harvested by centrifugation at 3,000 g for 5 min at 4° C. within 15 minutes of collection and subsequently stored at −70±10° C. until bioanalysis. For bioanalysis, for diluted plasma samples, an aliquot of 2 μL sample was diluted with 18 μL blank matrix and the dilution factor was 10. For non-diluted samples, an aliquot of 20 μL sample was added with 300 μL internal standard (diclofenac, 60 ng/mL) in acetonitrile. The mixture was vortexed for 10 minutes and centrifuged at 5,800 rpm for 10 minutes. 90 μL of supernatant was transferred to a 96 well plate and analyzed with a fit-for-purpose LC-MS/MS method, with authentic samples of each analyte used for calibration and identification.
Data Analysis. Pharmacokinetic parameters were estimated using the non-compartmental analysis tool of Phoenix® WinNonlin software (Ver 8.2).

A short description of data set [3]: Oral bioavailability in monkeys (plasma PK). Particulars: for AUC(0-inf): male, cynomolgus monkey. It counts as in vivo, Cynomolgus monkeys. The procedure: Animals. Male Cynomolgus monkeys were used in these studies. Animals were randomly assigned to treatment groups and were fasted overnight before dosing.
as §1, §2
Data Analysis. Pharmacokinetic parameters were estimated using the non-compartmental analysis tool of Phoenix® a WinNonlin software (Ver 8.2).

This is an account of results in patent US20240300886A1, “ARYLCYCLOHEXYLAMINE DERIVATIVES AND THEIR USE IN THE TREATMENT OF PSYCHIATRIC DISORDERS” (GILGAMESH PHARMACEUTICALS, INC., priority 2021, published 2024).

Like-named read-outs stand apart in the source and are kept apart here.

For the compound `CNC1(c2ccccc2Cl)CCCCC1=O` (racemic) [racemic ketamine, ketamine], the half-life stood at 8.66 min in data set [1] (CD-1, mouse brain, 10 mg/kg iv, read-out: t1/2 (iv)); 12.2 min in data set [1] (CD-1, mouse brain, 10 mg/kg po, read-out: t1/2 (po)); 8.46 min in data set [1] (CD-1, mouse plasma, 10 mg/kg iv, read-out: t1/2 (iv)); 11.5 min in data set [1] (CD-1, mouse plasma, 10 mg/kg po, read-out: t1/2 (po)). The Cmax in data set [1] (CD-1, mouse brain, 10 mg/kg po) is 521 ng/g; in data set [1] (CD-1, mouse plasma, 10 mg/kg po) it was 0.253 µg/mL. For the same compound, the AUC(0-inf) was 0.633 µg·h/mL in data set [1] (CD-1, mouse plasma, 10 mg/kg iv, read-out: AUC0-inf (iv) (converted)) and 0.0968 µg·h/mL in data set [1] (CD-1, mouse plasma, 10 mg/kg po, read-out: AUC0-inf (po) (converted)). Besides, the “AUC0-inf (iv)” value in data set [1] (mouse brain, 10 mg/kg iv) was 97,000 ng*min/g. Moreover, the “AUC0-inf (po)” value in data set [1] (mouse brain, 10 mg/kg po) is 6,030 ng*min/g. The F is 6.2% in data set [1] (mouse brain, calculated based on brain exposure) and 15% in data set [1] (mouse plasma).
In the case of `CN[C@@]1(c2ccc(F)cc2)CCCCC1=O` [Compound 2R, (R)-2-(4-fluorophenyl)-2(methylamino)cyclohexan-1-one], the AUC(0-inf) in data set [2] (minipig plasma, 1 mg/kg iv, read-out: AUC0-inf (iv) (converted)) was 0.566 µg·h/mL; in data set [2] (minipig plasma, 1 mg/kg po, read-out: AUC0-inf (po) (converted)), 0.242 µg·h/mL; in data set [3] (monkey plasma, 1 mg/kg iv, read-out: AUC0-inf (iv) (converted)), 0.964 µg·h/mL; in data set [3] (monkey plasma, 1 mg/kg po, read-out: AUC0-inf (po) (converted)), 0.259 µg·h/mL. The F in data set [2] (minipig plasma, 1 mg/kg) stood at 42.7%; in data set [3] (monkey plasma, 1 mg/kg), 27%. Moreover, the “oral bioavailability (in words)” value in data set [2] (minipigs, 1 mg/kg) is “good”; in data set [3] (monkeys, 1 mg/kg), “moderate”.

As usually defined, the Cmax is the highest concentration seen after dosing.
